Results reported in patent EP4458352A1, “EICOSAPENTAENOIC ACID ESTER DERIVATIVES FOR THE TREATMENT OF OBESITY” (Technische Universität Dresden, priority 2023, dated 2024).

Assays:
[1] = system: primary adrenal cell cultures; assay: Steroid hormone production (LC-MS/MS) in primary adrenal cell cultures treated with SC-26196, with or without ACTH or ARA; assay type: cell-based, WT C57BL/6J mice
Protocol: Adrenal glands or adrenal corteces were isolated from WT C57BL/6J mice, cleaned from the surrounding fat tissue and incubated in collagenase buffer (1.6 mg/ml collagenase type I, 1.6 mg/ml BSA) for 45 min at 37 °C, while shaking at 900 rpm. Dissociated cells were passed through 22 G needle and a 100 µm cell strainer and centrifuged at 300 × g for 5 min at 4 °C. Cells of a pool from two adrenals of each mouse were distributed in four 0.2 % gelatin-precoated wells of a 96-well plate in DMEM/F12 supplemented with 1 % FBS, 50 U/mL penicillin and 50 µg/mL streptomycin. Two hours after seeding 10 µM SC-26196 (Tocris, Wiesbaden-Nordenstadt, Germany) or same amount of carrier (DMSO) were added without changing the medium. In some experiments medium was additionally supplemented with 150 µM ARA (Sigma Aldrich, Germany) or same amount of solvent (endotoxin-free water). When induction of steroidogenesis was required, the medium was changed 18 h after treatment and the cells were incubated with or without 10 ng/mL ACTH for 60 min in the presence of either 10 µM SC-26196 or DMSO. Supernatants were kept for steroid hormone measurement and cell lysates were collected for transcriptional analysis. In some experiments, primary CD31-CD45- adrenocortical cells were treated or not for 18 h with 66 µM EPA (Sigma-Aldrich). Steroid hormones in plasma and cell culture supernatants were analyzed by LC-MS/MS as previously described (71). Fifty to hundred µL plasma or cell culture supernatants were extracted by solid phase extraction using positive pressure, followed by a dry-down under gentle stream of nitrogen. Residues were reconstituted in 100 µL of the initial LC mobile phase and 10 µL were injected for detection by the triple quadrupole mass spectrometer in multiple reaction-monitoring scan mode using positive electrospray ionization. Quantification of steroid concentrations was done by comparisons of ratios of analyte peak areas to respective peak areas of stable isotope labeled internal standards obtained in samples to those of calibrators.

[2] = system: adrenal cortex; assay: RNA-Seq and GSEA of the adrenal cortex of HFD mice with or without icosapent ethyl; assay type: in vivo, WT C57BL/6J mice; details: HFD with icosapent ethyl versus HFD without; n=4 mice per group
Protocol: Six weeks-old male WT C57BL/6J mice were fed for 20 weeks a LFD (D12450B, Research Diets, NJ, USA) or a HFD (D12492, Research Diets, NJ, USA). In some experiments, WT C57BL/6J mice were fed for 8 weeks a HFD and for another 8 weeks a HFD supplemented with SC-26196 (Biorbyt Ltd). SC-26196 was mixed in the HFD at a concentration of 625 mg/kg of diet corresponding to approx. 100 mg/kg of animal weight. In other experiments WT mice were fed for 10 weeks a HFD and for another 10 weeks a HFD supplemented with icosapent ethyl (Vascepa). […]
For transcriptome mapping, strand-specific paired-end sequencing libraries from total RNA were constructed using TruSeq stranded Total RNA kit (Illumina Inc). […] Low quality nucleotides were removed with the Illumina fastq filter and reads were further subjected to adaptor trimming using cutadapt (85). Alignment of the reads to the Mouse genome was done using STAR Aligner (86) using the parameters: "-runMode alignReads -outSAMstrandField intronMotif-outSAMtype BAM SortedByCoordinate-readFilesCommand zcat". […] The parameters: `htseq-count -f bam -s reverse -m union -a 20', HTSeq-0.6.1p1 (87) were used to count the reads that map to the genes in the aligned sample files. The GTF file (gencode.vM12.annotation.gtf) used for read quantification was downloaded from Gencode (https://www.gencodegenes.org/mouse/release_M12.html). […]

[3] = ARA 150 µM with SC-26196 10 µM, 18 h, n=6-8

SMILES | 11-deoxycorticosterone production in cells treated with SC-26196 [1, 3] | corticosterone production in cells treated with SC-26196 [1, 3] | progesterone production in cells treated with SC-26196 [1, 3] | steroidogenesis in adrenocortical cells ([1]; ARA supplementation (150 µM)) | genes being down-regulated in the adrenal cortex (RNA-Seq) [2] | genes being up-regulated in the adrenal cortex (RNA-Seq) [2]
CCCCC/C=C\C/C=C\C/C=C\C/C=C\CCCC(=O)O [ARA, all-cis-5,8,11,14-eicosatetraenoic acid] | partially restored | partially restored | partially restored | increased steroidogenesis | – | –
CC/C=C\C/C=C\C/C=C\C/C=C\C/C=C\CCCC(=O)OCC [icosapent ethyl, eicosapentaenoic acid ethyl ester] | – | – | – | – | 162 | 266
